{"source": "paper PMC6366411", "about": "“Novel 2-indolinones containing a sulfonamide moiety as selective inhibitors of candida β-carbonic anhydrase enzyme” (Journal of Enzyme Inhibition and Medicinal Chemistry, 2019)"}
{"target": "T1, CgNce103 (Nakaseomyces glabratus, UniProt Q6FTL6)", "T1 construct": "gene NCE103; enzyme preparation, host and tags not described", "T1 sequence (Q6FTL6 1-219)": "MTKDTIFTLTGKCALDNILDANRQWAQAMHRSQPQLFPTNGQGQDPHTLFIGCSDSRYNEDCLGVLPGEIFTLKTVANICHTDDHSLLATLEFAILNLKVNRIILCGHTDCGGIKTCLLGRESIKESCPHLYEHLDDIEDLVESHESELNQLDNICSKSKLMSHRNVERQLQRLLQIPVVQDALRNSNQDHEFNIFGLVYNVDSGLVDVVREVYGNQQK", "experiment": "stopped-flow CO2 hydration assay", "assay_type": "biochemical", "units": {"Ki": "nM"}}
{"smiles": "NS(=O)(=O)c1ccc(NC(=S)N/N=C2\\C(=O)Nc3ccc(Cl)cc32)cc1", "note": "[4e, 1H-indole-2,3-dione 3-[N-(4-sulfamoylphenyl)thiosemicarbazone], R = 5-Cl]", "Ki": 41.3}
{"smiles": "NS(=O)(=O)c1ccc(NC(=S)N/N=C2\\C(=O)Nc3ccc(F)cc32)cc1", "note": "[4d, 1H-indole-2,3-dione 3-[N-(4-sulfamoylphenyl)thiosemicarbazone], R = 5-F]", "Ki": 34.7}
{"smiles": "NS(=O)(=O)c1ccc(NC(=S)N/N=C2\\C(=O)Nc3ccccc32)cc1", "note": "[4a, 1H-indole-2,3-dione 3-[N-(4-sulfamoylphenyl)thiosemicarbazone], R = H]", "Ki": 63.9}
{"smiles": "NS(=O)(=O)c1ccc(NC(=S)N/N=C2\\C(=O)Nc3ccc(I)cc32)cc1", "note": "[4g, 1H-indole-2,3-dione 3-[N-(4-sulfamoylphenyl)thiosemicarbazone], R = 5-I]", "Ki": 19.8}
{"smiles": "Cc1ccc2c(c1)/C(=N/NC(=S)Nc1ccc(S(N)(=O)=O)cc1)C(=O)N2", "note": "[4b, 1H-indole-2,3-dione 3-[N-(4-sulfamoylphenyl)thiosemicarbazone], R = 5-CH3]", "Ki": 54}
{"smiles": "NS(=O)(=O)c1ccc(NC(=S)N/N=C2\\C(=O)Nc3c(Cl)cc(Cl)cc32)cc1", "note": "[4l, 1H-indole-2,3-dione 3-[N-(4-sulfamoylphenyl)thiosemicarbazone], R = 5,7-diCl]", "Ki": 6.4}
{"smiles": "NS(=O)(=O)c1ccc(NC(=S)N/N=C2\\C(=O)Nc3c(Cl)cccc32)cc1", "note": "[4k, 1H-indole-2,3-dione 3-[N-(4-sulfamoylphenyl)thiosemicarbazone], R = 7-Cl]", "Ki": 12.8}
{"smiles": "NS(=O)(=O)c1ccc(NC(=S)N/N=C2\\C(=O)Nc3ccc(OC(F)(F)F)cc32)cc1", "note": "[4c, 1H-indole-2,3-dione 3-[N-(4-sulfamoylphenyl)thiosemicarbazone], R = 5-OCF3]", "Ki": 53.7}
{"smiles": "NS(=O)(=O)c1ccc(NC(=S)N/N=C2\\C(=O)Nc3ccc([N+](=O)[O-])cc32)cc1", "note": "[4i, 1H-indole-2,3-dione 3-[N-(4-sulfamoylphenyl)thiosemicarbazone], R = 5-NO2]", "Ki": 42.1}
{"smiles": "NS(=O)(=O)c1ccc(NC(=S)N/N=C2\\C(=O)Nc3c(F)cccc32)cc1", "note": "[4j, 1H-indole-2,3-dione 3-[N-(4-sulfamoylphenyl)thiosemicarbazone], R = 7-F]", "Ki": 15}
{"smiles": "NS(=O)(=O)c1ccc(NC(=S)N/N=C2\\C(=O)Nc3ccc(S(=O)(=O)O)cc32)cc1", "note": "[4h, 1H-indole-2,3-dione 3-[N-(4-sulfamoylphenyl)thiosemicarbazone], R = 5-SO3Na]", "Ki": 19.8}
{"smiles": "NS(=O)(=O)c1ccc(NC(=S)N/N=C2\\C(=O)Nc3c(Br)cc(Br)cc32)cc1", "note": "[4m, 1H-indole-2,3-dione 3-[N-(4-sulfamoylphenyl)thiosemicarbazone], R = 5,7-diBr]", "Ki": 46.6}
{"smiles": "NS(=O)(=O)c1ccc(NC(=S)N/N=C2\\C(=O)Nc3ccc(Br)cc32)cc1", "note": "[4f, 1H-indole-2,3-dione 3-[N-(4-sulfamoylphenyl)thiosemicarbazone], R = 5-Br]", "Ki": 51.6}
